Literature values in US20210319872A1, “DRUG AND DEVICE COMBINATION PRODUCTS WITH IMPROVED SAFETY AND EFFICACY PROFILES” (priority 2016, published 2021).
Like-named read-outs stand apart in the source and are kept apart here.

Conditions: in vivo

For `CC1(C)O[C@@H]2[C@@H](CO[C@@]3(COS(N)(=O)=O)OC(C)(C)O[C@@H]23)O1` [Topiramate (Topamax)], the Confusion is listed as “Neurologic: Confusion (3% to 11%), Dizziness (4% to 25%),”, the Dizziness is listed as “Neurologic: Confusion (3% to 11%), Dizziness (4% to 25%),” and the Fatigue is listed as “Other: Fatigue (6% to 16%), Fever (1% to 12%)”. For the same compound, the Fever was “Other: Fatigue (6% to 16%), Fever (1% to 12%)”, the Flushing was “Dermatologic: Flushing (pediatrics, 5%)” and the Hyperammonemia was “Endocrine metabolic: Hyperammonemia (Adolescents, 26%),”. For the same compound, the Impaired cognition was “Impaired cognition (2% to 7%), Impaired psychomotor”, the Impaired psychomotor performance was “performance (2% to 13%), Memory impairment (3% to 12%),” and the Infectious disease was “Immunologic: Infectious disease (2% to 8%)”. The Memory impairment was “performance (2% to 13%), Memory impairment (3% to 12%),”, the Nephrolithiasis was “Renal: Nephrolithiasis (adults, 1% to 3%)” and the “Serious side effect, Endocrine metabolic” value was “Hypohidrosis, Increased body temperature, Metabolic acidosis”. The “Serious side effect, Hepatic” value was “Hepatic: Liver failure”, the “Serious side effect, Neurologic” value was “Neurologic: Drug-induced encephalopathy” and the “Serious side effect, Ophthalmic” value was “Ophthalmic: Glaucoma, Myopia, Visual field defect (epilepsy,”. For the same compound, the “Serious side effect, Psychiatric” value was “Psychiatric: Suicidal thoughts”, the Somnolence was 10%), Somnolence (6% to 29%) and the Visual field defect was 0.1% to 1%). The Weight decreased was “(4% to 21%)”.

For `CC(C)NCC(O)c1ccc(NS(C)(=O)=O)cc1` (stereo not drawn) [Sotalol (Betapace)], the Bradyarrhythmia is given as 12.3% to 16%; pediatric, 4%), Cardiac dysrhythmia (5%),, the Cardiac dysrhythmia is given as 12.3% to 16%; pediatric, 4%), Cardiac dysrhythmia (5%), and the Cerebrovascular accident is given as “Neurologic: Cerebrovascular accident (1%)”. For the same compound, the Chest pain was “Cardiovascular: Chest pain (Adult, 16%; pediatric, 4%),”, the Congestive heart failure was “Congestive heart failure (1.2% to 3.3%), Heart failure (5%),” and the Disturbance of consciousness was “Neurologic: Disturbance of consciousness (4%), Dizziness (13.1%”. The Dizziness was “Neurologic: Disturbance of consciousness (4%), Dizziness (13.1%”, the Dyspnea was “Respiratory: Dyspnea (9.2% to 21%)” and the Fatigue was “Other: Fatigue (18.9% to 20%)”. For the same compound, the Heart failure was “Congestive heart failure (1.2% to 3.3%), Heart failure (5%),”, the Lightheadedness was “Lightheadedness (12%)” and the Rash was “Dermatologic: Rash (5%)”. The Torsades de pointes was “Prolonged QT interval, Torsades de pointes (0.5% to 4%)”.

In the case of `C[C@H]1O[C@@H](O[C@H]2[C@@H](O)C[C@H](O[C@H]3[C@@H](O)C[C@H](O[C@H]4CC[C@@]5(C)[C@H](CC[C@@H]6[C@@H]5CC[C@]5(C)[C@@H](C7=CC(=O)OC7)CC[C@]65O)C4)O[C@@H]3C)O[C@@H]2C)C[C@H](O)[C@@H]1O` [Digitoxin], the “Common side effects, listed without incidence” value is given as “Enlarged Breasts” and the “Infrequent side effects, listed” value is given as “Sinus Bradycardia”.

In the case of `CC(C)(C)NCC(O)COc1cccc2c1CC(O)C(O)C2` (stereo not drawn) [Nadolol (Corgard)], the Bradyarrhythmia is listed as “Cardiovascular: Bradyarrhythmia (2%)”, the Cardiac dysrhythmia is listed as “Cardiovascular: Atrioventricular block, Cardiac dysrhythmia (1%),” and the Dizziness is listed as “Neurologic: Dizziness (2%)”. For the same compound, the Fatigue was “Other: Fatigue (2%)”, the Heart failure was “Heart failure (1%)” and the “Serious side effects, listed without incidence or only as rare” value was “Cardiovascular: Atrioventricular block, Cardiac dysrhythmia (1%),”.

In the case of `C[C@@H](Cc1ccccc1)NC(=O)[C@@H](N)CCCCN` [Lisdexamfetamine (Vyvanse)], the Anxiety is listed as “Psychiatric: Anxiety (Adults, 5% to 6%), Irritability (pediatrics,”, the “Common side effects, listed without incidence” value is listed as “Endocrine metabolic: Decreased body growth, Weight decreased” and the Diarrhea is listed as “Gastrointestinal: Diarrhea (adults, 7%), Loss of appetite (adults, 8%”. For the same compound, the Irritability was 10%), the Rash was “Dermatologic: Rash (pediatrics, 3%)” and the Upper abdominal pain was 6%), Upper abdominal pain (pediatrics, 12%), Vomiting. The Vomiting was “(pediatrics, 9%), Xerostomia (Adults, 26% to 36%; pediatrics, 4%”, the Weight decreased was “(pediatrics, 9%)” and the Xerostomia was “(pediatrics, 9%), Xerostomia (Adults, 26% to 36%; pediatrics, 4%”.

For `Cl.O=C1[C@@H]2[C@H]3CC[C@H](C3)[C@@H]2C(=O)N1C[C@@H]1CCCC[C@H]1CN1CCN(c2nsc3ccccc23)CC1` [Latuda], the Akathisia is listed as “Neurologic: Akathisia (5.6% to 22%), Extrapyramidal disease”, the Anxiety is listed as “Psychiatric: Anxiety (4% to 5%)” and the Cerebrovascular accident is listed as “Neurologic: Cerebrovascular accident (0.1% to 1%), Seizure (less”. The Diarrhea was “Gastrointestinal: Diarrhea (3% to 5%), Nausea (10% to 17%),”, the Nausea was “Gastrointestinal: Diarrhea (3% to 5%), Nausea (10% to 17%),” and the Orthostatic hypotension was “Cardiovascular: Orthostatic hypotension (0.3% to 2.1%), Syncope”. For the same compound, the “Serious side effect, Hematologic” value was “Hematologic: Agranulocytosis”, the “Serious side effect, Other” value was “Other: Neuroleptic malignant syndrome” and the Serum creatinine raised was “Renal: Serum creatinine raised (2% to 4%)”. For the same compound, the Suicidal thoughts was “Psychiatric: Suicidal thoughts (0.4% to 1.1%)”, the Syncope was “(0.1%)” and the Vomiting was “Vomiting (2% to 8%)”.

In the case of `CNCC[C@@H](Oc1ccccc1C)c1ccccc1` [Atomoxetine (Strattera)], the Constipation is listed as 18%), Constipation (adult, 8%; pediatric, 1% to 2%), Decrease in, the Decrease in appetite is listed as “appetite (adult, 16%; pediatric, 16%), Nausea (adult, 26%;” and the “Delay when starting to pass urine” value is listed as “Renal: Delay when starting to pass urine (adult, 6%)”. For the same compound, the Dysmenorrhea was “Reproductive: Dysmenorrhea (adult, 3%), Erectile dysfunction”, the Erectile dysfunction was “(adult, 8%)” and the Headache was “Neurologic: Headache (pediatric, 19%), Insomnia (adult, 15%;”. For the same compound, the “Increased systolic arterial pressure” value was “pressure (adult, 4.2% to 12.4%; pediatric, 4.9% to 12.5%),”, the Menopausal flushing was “Other: Menopausal flushing (adult, 3%)” and the Priapism was “Reproductive: Priapism (rare)”. The Seizure was 0.1%; pediatric, 0.2%), the “Serious side effect, Cardiovascular” value was “Cardiovascular: Myocardial infarction, Sudden cardiac death” and the “Serious side effect, Hepatic” value was “Hepatic: Injury of liver (Severe), Liver failure”. For the same compound, the “Serious side effect, Neurologic” value was “Neurologic: Cerebrovascular accident, Dyskinesia, Seizure (adult,”, the “Serious side effect, Psychiatric” value was “Psychiatric: Mania, Psychotic disorder, Suicidal thoughts” and the Somnolence was “pediatric, at least 2%), Somnolence (adult, 8%; pediatric, 11%)”. The Suicidal thoughts was “(pediatric, 0.4%)”, the Tachycardia was “Tachycardia (adult, 1.5% to 22.4%; pediatric, 0.3% to 23.4%)” and the Vomiting was “pediatric, 7% to 13%), Vomiting (adult, 4%; pediatric, 11%),”. The Weight decreased was “Endocrine metabolic: Weight decreased (adults, 2%; pediatric, 3%” and the Xerostomia was “Xerostomia (adult, 20%)”.

In the case of `COc1ccccc1OCCNCC(O)COc1cccc2[nH]c3ccccc3c12` (stereo not drawn) [carvedilol, Common brand names - Coreg*], the Abnormal weight gain is given as “Endocrine metabolic: Abnormal weight gain (10% to 12%),”, the Atrioventricular block is given as “Cardiovascular: Atrioventricular block (greater than 1% to 3%)” and the Bradyarrhythmia is given as “Cardiovascular: Bradyarrhythmia (3% to 10%), Hypotension (1.8%”. For the same compound, the Diarrhea was “Gastrointestinal: Diarrhea (2% to 12%)”, the Dizziness was “Neurologic: Dizziness (6% to 33%)” and the Erectile dysfunction was “Reproductive: Erectile dysfunction (13.5%)”. For the same compound, the Fatigue was “Other: Fatigue (24%)”, the Hyperglycemia was “Hyperglycemia (5% to 12%)” and the Hypotension was “Cardiovascular: Bradyarrhythmia (3% to 10%), Hypotension (1.8%”.

In the case of `NS(=O)(=O)c1cc(C2(O)NC(=O)c3ccccc32)ccc1Cl` (stereo not drawn) [Chlorthalidone (Hygroton)], the “Common side effect listed (incidence not given)” value is given as “Endocrine metabolic: Hyperuricemia”.

In the case of `COc1ccc2c3c1O[C@H]1[C@@H](O)C=C[C@H]4[C@@H](C2)N(C)CC[C@@]341` [Codeine], the “Common side effect, Gastrointestinal” value is listed as “Gastrointestinal: Constipation, Nausea, Vomiting”, the “Common side effect, Neurologic” value is listed as “Neurologic: Dizziness, Lightheadedness, Sedated, Somnolence” and the “Common side effect, Respiratory” value is listed as “Respiratory: Dyspnea”. The “Serious side effect, Cardiovascular” value was “Cardiovascular: Hypotension”, the “Serious side effect, Gastrointestinal” value was “Gastrointestinal: Bowel obstruction, Pancreatitis” and the “Serious side effect, Neurologic” value was “Neurologic: CSF pressure: raised, Seizure”. For the same compound, the “Serious side effect, Respiratory” value was “Respiratory: Respiratory depression”.

In the case of `CC(C)(C)NC[C@H](O)COc1nsnc1N1CCOCC1` [Timolol (Blocadren)], the “Burning sensation in eye” value is given as “sensation in eye (Ophthalmic, 12.5% to 20%), Dry eyes”, the Cardiac dysrhythmia is given as “Cardiovascular: Cardiac dysrhythmia (1%), Myocardial infarction” and the Confusion is given as “Neurologic: Confusion (13%), Dizziness (2.3% to 6%, oral),”. For the same compound, the Depression was “Psychiatric: Depression (9.2%, ophthalmic), Hallucinations (11%),”, the Hallucinations was “Psychiatric: Depression (9.2%, ophthalmic), Hallucinations (11%),” and the Headache was “Headache (1.7%, oral; 1% to 5%, ophthalmic)”. For the same compound, the Psychotic disorder was “Psychotic disorder (3%)”, the “Serious side effects, listed without incidence or only as rare” value was “Cardiovascular: Cardiac dysrhythmia (1%), Myocardial infarction” and the Bradyarrhythmia (po) was “Cardiovascular: Angina, Bradyarrhythmia (5% to 9.1%, oral),”. The Bronchospasm (po) was “Respiratory: Bronchospasm (0.6%, oral)”, the Dizziness (po) was “Neurologic: Confusion (13%), Dizziness (2.3% to 6%, oral),” and the Dyspnea (po) was “Respiratory: Cough, Dyspnea (1.7%, oral)”. The Fatigue (po) was “Other: Fatigue (3.4% to 5%, oral), Infectious disease”, the Headache (po) was “Headache (1.7%, oral; 1% to 5%, ophthalmic)” and the Heart failure (po) was “Heart failure (8%, oral), Hypotension”.

For `COc1ccc([C@@H]2Sc3ccccc3N(CCN(C)C)C(=O)[C@@H]2OC(C)=O)cc1` [Diltiazem (Cardizem, Tiazac)], the Bradyarrhythmia is given as “Cardiovascular: Bradyarrhythmia (1.7% to 3.6%), Peripheral”, the Congestive heart failure is given as “Cardiovascular: Congestive heart failure (less than 2%), Heart” and the Cough is given as “Respiratory: Cough (2%)”. For the same compound, the Dizziness was “Neurologic: Dizziness (3.5% to 6.4%), Headache (4.6%)”, the Fatigue was “Other: Fatigue (4.8%)” and the Headache was “Neurologic: Dizziness (3.5% to 6.4%), Headache (4.6%)”. For the same compound, the Peripheral edema was “edema (4.6% to 8%)”.

In the case of `CC(C)NCC(O)COc1cccc2ccccc12` (stereo not drawn) [Propranolol (Inderal)], the Dizziness is listed as “Neurologic: Dizziness (Hypertension, 4% to 7%), Sleep disorder” and the Fatigue is listed as “Other: Fatigue (5% to 7%)”.

In the case of `Clc1ccccc1CN1CCc2sccc2C1` [Ticlopidine], the Neutropenia is given as 2.4%.
